pIC50: −log10 of the molar value. ≈ marks a conversion by molar mass, not a printed value. Blank lines part the entries; values can stand above or below the compound they belong to.
Key:
[1] = Plasma protein binding rate (PPB) test, equilibrium dialysis; type: in vitro ADME; conditions: human, 37°C
Experimental: In vitro protein binding rates of 0.2 μM, 2 μM, 10 μM of test compounds with Sprague-Dawley rats, beagle dogs, human plasma were determined by equilibrium dialysis.
The experiment will use a 96-well equilibrium dialysis plate (HTDialysis device) to determine the plasma protein binding rate of the to-be-tested compound and the control compounds.
Prior to the start of the experiment, the dialysis membrane was pretreated according to the instructions for use and the dialysis unit was assembled as required.
Blank plasma was taken from CD-1 mice, Sprague-Dawley rats, Beagle dogs, cynomolgus monkeys and humans (an anticoagulant is EDTA-K2, which is a commercial product purchased, or is collected and prepared by the Drug Evaluation Department of Wuxi AppTech, and is stored in a refrigerator below −60° C. before use). A certain volume of the to-be-tested compound or the control compound working solution was added to prepare plasma samples of the compound to be tested at a concentration of 0.2, 2, 10 μM and plasma samples of the control compound at a concentration of 2 μM (n=1). The organic phase content was ≤1%. First, a certain volume of a plasma sample containing the to-be-tested compound and the control compound was taken out into the sample receiving plate as a sample at zero time (T0 sample, n=3); secondly, a plasma sample containing the to-be-tested compound and the control compound was added to one side of the dialysis membrane (plasma end, n=3), and a certain volume of dialysis buffer (buffer end, n=3) was added to the other side of the dialysis membrane; then the dialysis plate was placed in a humidified incubator with 5% CO2 for incubation for 4 hours at 37±1° C.
After the incubation, a certain volume of the dialyzed buffer sample (F sample) and the dialyzed plasma sample (T sample) were transferred to the sample receiving plate, and all samples were subjected to protein precipitation for LC/MS/MS analysis. And the dissociation rate of the compound (% Unbound) was calculated by the following formula: % Unbound=100*[F]/[T], % Bound=100−% Unbound. Wherein, % Unbound is the dissociation rate of the compound; % Bound is the binding rate of the compound; [F] is the concentration of the compound at the buffer end of the dialysis plate; [T] is the concentration of the compound at the plasma end of the dialysis plate; and the experimental results are shown in Table 7.

CYP3A4 = biological target: T1, CYP3A4 (Homo sapiens, UniProt P08684); assay: Human liver microsome CYP inhibition experiment; type: in vitro ADME; conditions: pooled human liver microsomes; read-out: Cytochrome P450 isoenzyme IC50 3A4
T1 construct: Mixed human liver microsomes (pooled HLM, n≥50) were purchased from Corning Inc; tissue Corning Inc. or other qualified suppliers; host or cells: pooled human liver microsomes (n≥50)
T1 sequence (P08684 whole entry): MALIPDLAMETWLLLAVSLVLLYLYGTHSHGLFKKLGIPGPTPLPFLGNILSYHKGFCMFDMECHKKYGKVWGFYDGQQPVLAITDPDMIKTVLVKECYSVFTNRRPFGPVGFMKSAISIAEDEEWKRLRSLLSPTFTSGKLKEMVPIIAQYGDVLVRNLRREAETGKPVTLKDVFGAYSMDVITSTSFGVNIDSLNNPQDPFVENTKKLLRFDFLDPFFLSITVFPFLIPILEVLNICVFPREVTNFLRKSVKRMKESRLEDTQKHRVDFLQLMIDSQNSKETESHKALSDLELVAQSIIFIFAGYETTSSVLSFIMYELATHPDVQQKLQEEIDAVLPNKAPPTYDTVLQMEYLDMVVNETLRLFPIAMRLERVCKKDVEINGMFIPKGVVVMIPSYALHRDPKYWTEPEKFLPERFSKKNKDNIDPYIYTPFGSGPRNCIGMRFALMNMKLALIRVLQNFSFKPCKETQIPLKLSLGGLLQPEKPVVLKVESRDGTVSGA
Experimental: (§1) The research project used a specific probe substrate for each isoenzyme to evaluate the inhibitory effect of the test compound on human liver microsomal cytochrome P450 isoenzymes (CYPIA2. CYP2C9, CYP2C19, CYP2D6, and CYP3A4). Mixed human liver microsomes (pooled HLM, n≥50) were purchased from Corning Inc. (Steuben, N.Y., USA) or other qualified suppliers, and were stored in a refrigerator below −60° C. before use. The diluted series of to-be-tested compound working solutions were added to an incubation system containing cofactors of human liver microsomes, a probe substrate and a circulation system, and the methanol content was about 1% (v/v) of the final incubation system. A control containing no the to-be-tested compound and containing a solvent was used as a control for enzyme activity (100%). The concentration of the analyte in the sample was determined by liquid chromatography-tandem mass spectrometry (LC/MS/MS). The calculation was performed by using the average of the concentrations of the samples (a blank solvent, a positive control inhibitor, or the to-be-tested compound). Non-linear regression analysis was performed by using SigmaPlot (V.11) on the average percent activity of the compound to be tested to the concentration. The IC50 value was calculated by a three-parameter or four-parameter inflection logarithmic equation.

CYP2D6 = biological target: T2, CYP2D6 (Homo sapiens, UniProt P10635); assay: Human liver microsome CYP inhibition experiment; type: in vitro ADME; conditions: pooled human liver microsomes; read-out: Cytochrome P450 isoenzyme IC50 2D6
T2 construct: Mixed human liver microsomes (pooled HLM, n≥50) were purchased from Corning Inc; tissue Corning Inc. or other qualified suppliers; host or cells: pooled human liver microsomes (n≥50)
T2 sequence (P10635 whole entry): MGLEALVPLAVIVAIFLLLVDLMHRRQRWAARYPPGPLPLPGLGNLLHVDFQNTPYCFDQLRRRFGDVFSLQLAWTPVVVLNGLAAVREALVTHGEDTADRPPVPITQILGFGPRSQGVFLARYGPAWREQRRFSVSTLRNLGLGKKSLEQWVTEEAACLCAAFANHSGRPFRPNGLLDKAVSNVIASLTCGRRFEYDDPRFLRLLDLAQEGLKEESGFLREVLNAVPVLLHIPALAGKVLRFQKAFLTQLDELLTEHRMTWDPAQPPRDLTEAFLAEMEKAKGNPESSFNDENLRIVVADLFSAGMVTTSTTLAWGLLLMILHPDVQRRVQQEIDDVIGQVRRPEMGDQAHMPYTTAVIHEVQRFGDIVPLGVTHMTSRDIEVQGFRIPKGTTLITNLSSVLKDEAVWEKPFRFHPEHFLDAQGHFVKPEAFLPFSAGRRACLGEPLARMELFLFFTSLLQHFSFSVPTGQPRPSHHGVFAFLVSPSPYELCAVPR
Experimental: as §1

CYP1A2 = biological target: T3, CYP1A2 (Homo sapiens, UniProt P05177); assay: Human liver microsome CYP inhibition experiment; type: in vitro ADME; conditions: pooled human liver microsomes; read-out: Cytochrome P450 isoenzyme IC50 CYP1A2
T3 construct: Mixed human liver microsomes (pooled HLM, n≥50) were purchased from Corning Inc; tissue Corning Inc. or other qualified suppliers; host or cells: pooled human liver microsomes (n≥50)
T3 sequence (P05177 1-516): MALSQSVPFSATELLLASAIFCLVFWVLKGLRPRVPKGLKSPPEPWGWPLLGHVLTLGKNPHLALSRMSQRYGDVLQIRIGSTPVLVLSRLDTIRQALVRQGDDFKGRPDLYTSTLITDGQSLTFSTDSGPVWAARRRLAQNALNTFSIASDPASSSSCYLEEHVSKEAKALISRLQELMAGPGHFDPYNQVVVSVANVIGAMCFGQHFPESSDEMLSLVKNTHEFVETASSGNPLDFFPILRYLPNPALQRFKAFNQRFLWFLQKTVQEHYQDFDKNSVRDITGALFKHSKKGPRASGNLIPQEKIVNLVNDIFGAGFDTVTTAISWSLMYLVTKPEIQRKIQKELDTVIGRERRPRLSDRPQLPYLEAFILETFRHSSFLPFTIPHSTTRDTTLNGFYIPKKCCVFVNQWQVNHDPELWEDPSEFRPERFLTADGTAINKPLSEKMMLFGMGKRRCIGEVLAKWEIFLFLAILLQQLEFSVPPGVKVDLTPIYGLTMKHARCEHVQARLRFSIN
Experimental: as §1

CYP2C19 = biological target: T4, CYP2C19 (Homo sapiens, UniProt P33261); assay: Human liver microsome CYP inhibition experiment; type: in vitro ADME; conditions: pooled human liver microsomes; read-out: Cytochrome P450 isoenzyme IC50 2C19
T4 construct: Mixed human liver microsomes (pooled HLM, n≥50) were purchased from Corning Inc; tissue Corning Inc. or other qualified suppliers; host or cells: pooled human liver microsomes (n≥50)
T4 sequence (P33261 whole entry): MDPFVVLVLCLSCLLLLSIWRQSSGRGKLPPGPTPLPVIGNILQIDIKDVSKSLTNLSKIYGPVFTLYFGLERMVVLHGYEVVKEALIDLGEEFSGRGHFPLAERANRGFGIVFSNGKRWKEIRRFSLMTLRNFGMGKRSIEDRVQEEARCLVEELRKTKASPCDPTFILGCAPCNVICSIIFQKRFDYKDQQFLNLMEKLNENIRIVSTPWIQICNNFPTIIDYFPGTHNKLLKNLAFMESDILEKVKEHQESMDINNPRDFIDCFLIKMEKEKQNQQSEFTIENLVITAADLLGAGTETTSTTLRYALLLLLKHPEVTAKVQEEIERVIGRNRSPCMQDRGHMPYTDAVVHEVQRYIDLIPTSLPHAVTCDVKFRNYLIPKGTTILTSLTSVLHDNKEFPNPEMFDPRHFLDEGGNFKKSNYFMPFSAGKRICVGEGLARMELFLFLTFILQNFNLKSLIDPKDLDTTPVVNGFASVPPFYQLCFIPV
Experimental: as §1

CYP2C9 = biological target: T5, CYP2C9 (Homo sapiens, UniProt P11712); assay: Human liver microsome CYP inhibition experiment; type: in vitro ADME; conditions: pooled human liver microsomes; read-out: Cytochrome P450 isoenzyme IC50 2C9
T5 construct: Mixed human liver microsomes (pooled HLM, n≥50) were purchased from Corning Inc; tissue Corning Inc. or other qualified suppliers; host or cells: pooled human liver microsomes (n≥50)
T5 sequence (P11712 whole entry): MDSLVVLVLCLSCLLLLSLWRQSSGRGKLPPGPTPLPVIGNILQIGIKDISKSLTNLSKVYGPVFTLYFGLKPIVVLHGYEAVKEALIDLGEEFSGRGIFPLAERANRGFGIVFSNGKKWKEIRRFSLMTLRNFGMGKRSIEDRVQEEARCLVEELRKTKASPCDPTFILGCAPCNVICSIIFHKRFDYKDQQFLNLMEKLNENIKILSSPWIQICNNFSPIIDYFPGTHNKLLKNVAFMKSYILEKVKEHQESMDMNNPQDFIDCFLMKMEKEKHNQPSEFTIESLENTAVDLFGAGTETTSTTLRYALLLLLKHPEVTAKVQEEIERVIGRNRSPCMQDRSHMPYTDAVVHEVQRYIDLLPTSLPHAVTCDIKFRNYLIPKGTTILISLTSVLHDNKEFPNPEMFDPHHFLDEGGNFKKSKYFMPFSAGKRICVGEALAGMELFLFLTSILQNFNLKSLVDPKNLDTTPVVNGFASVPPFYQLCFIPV
Experimental: as §1

[2] = Determination of kinetic solubility; type: physicochemical; conditions: buffer solution pH 7.4, aqueous buffer, kinetic from dmso stock, pH 7.4, 24 hours at room temperature, theoretical maximum 200 μM
Experimental: The to-be-tested compound was dissolved in DMSO to prepare a 10 mmol/L stock solution. 980 μL of dissolution medium was pipetted into a 2 mL screw-capped glass vial by using a pipette (Eppendorf Research Company). 20 μL of the stock solution of each test compound and the QC sample were added to a buffer solution corresponding to a kinetic detection solution of pH 7.4. The final concentrations of the test compound and DMSO solution were 200 μM and 2%, respectively. The cover of the medicine bottle was screwed. The theoretical maximum concentration is 200 μM. The mixture was shaken at 880 rpm for 24 hours at room temperature. The vial was centrifuged for 30 minutes at 13,000 rpm. 200 μL of the supernatant was added to a 96-well plate by using a digital pipette. The solubility of the test compound was determined by high performance liquid chromatography, and the experimental results are shown in Table 2.

SMILES: COc1ccc2c(c1OCc1ccccc1)C[C@@H](C(=O)O)N(C(=O)[C@@H](OC1(C)CCCC1)c1ccccc1)C2 [Compound 57]
- fraction unbound at 4 h [1]: 0.005

SMILES: COc1ccc2c(c1OCc1ccccc1)C[C@@H](C(=O)O)N(C(=O)[C@@H](O[C@H]1CC[C@@H](O)CC1)c1ccccc1)C2 [Compound 63]
- fraction unbound at 4 h [1]: 0.016
- pIC50 (CYP3A4): < 4.30
- pIC50 (CYP2D6): < 4.30
- pIC50 (CYP1A2): < 4.30
- pIC50 (CYP2C19): < 4.30
- pIC50 (CYP2C9): < 4.30
- solubility at 24 h [2]: 190 µM (≈ 104 µg/mL)

SMILES: COc1ccc2c(c1OCc1ccccc1)C[C@@H](C(=O)O)N(C(=O)[C@@H](OC1CC(F)(F)C1)c1ccccc1)C2 [Compound 51]
- fraction unbound at 4 h [1]: 0.007
- pIC50 (CYP3A4): < 4.30
- pIC50 (CYP2D6): < 4.30
- pIC50 (CYP1A2): < 4.30
- pIC50 (CYP2C19): < 4.30
- pIC50 (CYP2C9): 4.46
- solubility at 24 h [2]: 190 µM (≈ 102 µg/mL)

SMILES: O=C(O)[C@@H]1Cc2c(ccc(Cl)c2OCc2ccccc2)CN1C(=O)[C@@H](OC1CCCC1)c1ccccc1 [Compound 107]
- pIC50 (CYP3A4): < 4.30
- pIC50 (CYP2D6): < 4.30
- pIC50 (CYP1A2): < 4.30
- pIC50 (CYP2C19): < 4.30
- pIC50 (CYP2C9): 4.84
- solubility at 24 h [2]: 181 µM (≈ 94.2 µg/mL)

Continued, values first:

- fraction unbound at 4 h [1]: 0.004
- pIC50 (CYP3A4): < 4.30
- pIC50 (CYP2D6): < 4.30
- pIC50 (CYP1A2): < 4.30
- pIC50 (CYP2C19): < 4.30
- pIC50 (CYP2C9): 4.52
- solubility at 24 h [2]: > 200 µM
SMILES: COc1ccc2c(c1OCc1ccccc1)C[C@@H](C(=O)O)N(C(=O)[C@@H](OC1CCCC1)c1ccccc1)C2 [Compound 37]

- fraction unbound at 4 h [1]: 0.002
- pIC50 (CYP3A4): 5.04
- pIC50 (CYP2D6): < 4.30
- pIC50 (CYP1A2): 4.89
- pIC50 (CYP2C19): 4.75
- pIC50 (CYP2C9): 5.14
- solubility at 24 h [2]: 192 µM (≈ 97.3 µg/mL)
SMILES: COc1ccc2c(c1OCc1ccccc1)C[C@@H](C(=O)O)N(C(=O)C(c1ccccc1)c1ccccc1)C2 [EMA-401, reference compound]
